# Test results: PubChem BioAssay (NCI)
# Values joined by “and” are separate entries in the source; they are usually repeats but may differ in a detail not shown here. Equal entries are not always repeated.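 48-hour exposure; five concentrations; linearly interpolated endpoints. Here, GI50 denotes the concentration required for 50% inhibition of growth. TGI: concentration producing complete growth inhibition.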
# Legend:
# Assay in all cases: NCI anticancer screen, dose series, 48 h
# A498 renal = test system: A498 renal
# SF-539 CNS = test system: SF-539 CNS
# HL-60(TB) leukemia = test system: HL-60(TB) leukemia
# SF-295 CNS = test system: SF-295 CNS
# HS 578T breast = test system: HS 578T breast
# HCT-15 colon = test system: HCT-15 colon
# DU-145 prostate = test system: DU-145 prostate
# ACHN renal = test system: ACHN renal
# KM12 colon = test system: KM12 colon
# A549 NSCLC = test system: A549 NSCLC
# K-562 leukemia = test system: K-562 leukemia
# RXF 393 renal = test system: RXF 393 renal
# LOX IMVI melanoma = test system: LOX IMVI melanoma
# MOLT-4 leukemia = test system: MOLT-4 leukemia
# OVCAR-3 ovarian = test system: OVCAR-3 ovarian
# 786-0 renal = test system: 786-0 renal
# NCI/ADR-RES ovarian = test system: NCI/ADR-RES ovarian
# M14 melanoma = test system: M14 melanoma
# MCF7 breast = test system: MCF7 breast
# UACC-62 melanoma = test system: UACC-62 melanoma
# HT29 colon = test system: HT29 colon
# TK-10 renal = test system: TK-10 renal
# RPMI-8226 leukemia = test system: RPMI-8226 leukemia
# NCI-H460 lung = test system: NCI-H460 lung
# HOP-62 NSCLC = test system: HOP-62 NSCLC
# PC-3 prostate = test system: PC-3 prostate
# U251 CNS = test system: U251 CNS
# HCT-116 colon = test system: HCT-116 colon
# CAKI-1 renal = test system: CAKI-1 renal
# OVCAR-8 ovarian = test system: OVCAR-8 ovarian
# COLO 205 colon = test system: COLO 205 colon
# SNB-75 CNS = test system: SNB-75 CNS
# SNB-19 CNS = test system: SNB-19 CNS
# SK-MEL-5 melanoma = test system: SK-MEL-5 melanoma
# OVCAR-5 ovarian = test system: OVCAR-5 ovarian
# T-47D breast = test system: T-47D breast
# NCI-H226 lung = test system: NCI-H226 lung
# SF-268 CNS = test system: SF-268 CNS
# MDA-MB-435 = test system: MDA-MB-435
# SR leukemia = test system: SR leukemia
# CCRF-CEM leukemia = test system: CCRF-CEM leukemia
# NCI-H23 lung = test system: NCI-H23 lung
# HOP-92 NSCLC = test system: HOP-92 NSCLC
# UACC-257 melanoma = test system: UACC-257 melanoma
# BT-549 breast = test system: BT-549 breast
# SK-OV-3 ovarian = test system: SK-OV-3 ovarian
# IGROV1 ovarian = test system: IGROV1 ovarian
# MALME-3M melanoma = test system: MALME-3M melanoma
# SK-MEL-2 melanoma = test system: SK-MEL-2 melanoma
# SK-MEL-28 melanoma = test system: SK-MEL-28 melanoma
# SN12C renal = test system: SN12C renal
# OVCAR-4 ovarian = test system: OVCAR-4 ovarian
# NCI-H522 lung = test system: NCI-H522 lung
# MDA-MB-231 breast = test system: MDA-MB-231 breast
# EKVX NSCLC = test system: EKVX NSCLC
# UO-31 renal = test system: UO-31 renal
# SW-620 colon = test system: SW-620 colon
# HCC-2998 colon = test system: HCC-2998 colon
structure (smiles),measurement,setting,value
O=C(NNc1nc2cc(F)cc(F)c2n2cccc12)c1cccnn1,GI50,A498 renal,868 nM and 428 nM
same,TGI,A498 renal,4850 nM and 3080 nM
same,GI50,SF-539 CNS,396 nM and 314 nM
same,TGI,SF-539 CNS,3870 nM and 3350 nM
same,GI50,HL-60(TB) leukemia,765 nM and 259 nM
same,GI50,SF-295 CNS,175 nM and 73.5 nM
same,TGI,SF-295 CNS,4600 nM and 2140 nM
same,GI50,HS 578T breast,3790 nM and 1130 nM
same,TGI,HS 578T breast,30000 nM and 36800 nM
same,GI50,HCT-15 colon,124 nM and 48.3 nM
same,TGI,HCT-15 colon,13500 nM and > 100000 nM
same,GI50,DU-145 prostate,507 nM and 371 nM
same,TGI,DU-145 prostate,6230 nM and 4080 nM
same,GI50,ACHN renal,164 nM and 165 nM
same,TGI,ACHN renal,4140 nM and 3170 nM
same,GI50,KM12 colon,507 nM and 185 nM
same,TGI,KM12 colon,30000 nM and > 100000 nM
same,GI50,A549 NSCLC,378 nM and 215 nM
same,TGI,A549 NSCLC,5720 nM and 3740 nM
same,GI50,K-562 leukemia,817 nM and 263 nM
same,GI50,RXF 393 renal,865 nM and 242 nM
same,TGI,RXF 393 renal,3610 nM and 2170 nM
same,GI50,LOX IMVI melanoma,295 nM
same,TGI,LOX IMVI melanoma,3570 nM
same,GI50,MOLT-4 leukemia,186 nM and 167 nM
same,GI50,OVCAR-3 ovarian,234 nM and 128 nM
same,TGI,OVCAR-3 ovarian,5190 nM and 10700 nM
same,GI50,786-0 renal,208 nM and 261 nM
same,TGI,786-0 renal,2460 nM and 6240 nM
same,GI50,NCI/ADR-RES ovarian,270 nM and 161 nM
same,TGI,NCI/ADR-RES ovarian,3850 nM and 2190 nM
same,GI50,M14 melanoma,164 nM and 179 nM
same,GI50,MCF7 breast,453 nM and 260 nM
same,TGI,MCF7 breast,5670 nM and 2560 nM
same,GI50,UACC-62 melanoma,305 nM and 329 nM
same,GI50,HT29 colon,725 nM and 475 nM
same,TGI,HT29 colon,30000 nM and 27200 nM
same,GI50,TK-10 renal,792 nM and 317 nM
same,TGI,TK-10 renal,20800 nM and 11300 nM
same,GI50,RPMI-8226 leukemia,716 nM and 286 nM
same,TGI,RPMI-8226 leukemia,30000 nM and 3060 nM
same,GI50,NCI-H460 lung,147 nM and 61 nM
same,TGI,NCI-H460 lung,3470 nM and 1280 nM
same,GI50,HOP-62 NSCLC,206 nM and 67.7 nM
same,TGI,HOP-62 NSCLC,4770 nM and 5250 nM
same,GI50,PC-3 prostate,478 nM and 296 nM
same,TGI,PC-3 prostate,30000 nM and > 100000 nM
same,GI50,U251 CNS,241 nM and 113 nM
same,TGI,U251 CNS,13300 nM and 4420 nM
same,GI50,HCT-116 colon,151 nM
same,TGI,HCT-116 colon,916 nM
same,GI50,CAKI-1 renal,291 nM and 183 nM
same,TGI,CAKI-1 renal,4960 nM and 5280 nM
same,GI50,OVCAR-8 ovarian,362 nM and 246 nM
same,TGI,OVCAR-8 ovarian,30000 nM and > 100000 nM
same,GI50,COLO 205 colon,533 nM
same,TGI,COLO 205 colon,5060 nM
same,TGI,SNB-75 CNS,17900 nM and 7790 nM
same,GI50,SNB-19 CNS,409 nM and 337 nM
same,GI50,SK-MEL-5 melanoma,504 nM and 312 nM
same,TGI,SK-MEL-5 melanoma,4950 nM and 2390 nM
same,GI50,OVCAR-5 ovarian,847 nM and 1390 nM
same,TGI,OVCAR-5 ovarian,30000 nM and 31600 nM
same,GI50,T-47D breast,632 nM and 322 nM
same,TGI,T-47D breast,11300 nM and 4180 nM
same,GI50,NCI-H226 lung,341 nM and 799 nM
same,TGI,NCI-H226 lung,5640 nM and 7420 nM
same,GI50,SF-268 CNS,359 nM and 209 nM
same,TGI,SF-268 CNS,30000 nM and 11400 nM
same,GI50,MDA-MB-435,1270 nM and 599 nM
same,TGI,MDA-MB-435,30000 nM and 15800 nM
same,GI50,SR leukemia,147 nM and 43.1 nM
same,GI50,CCRF-CEM leukemia,163 nM and 43.2 nM
same,GI50,NCI-H23 lung,575 nM
same,TGI,NCI-H23 lung,> 100000 nM
same,GI50,HOP-92 NSCLC,778 nM and 440 nM
same,TGI,HOP-92 NSCLC,8790 nM and 5340 nM
same,GI50,UACC-257 melanoma,868 nM and 395 nM
same,TGI,UACC-257 melanoma,3410 nM and 3630 nM
same,GI50,BT-549 breast,520 nM and 291 nM
same,TGI,BT-549 breast,2260 nM and 9430 nM
same,GI50,SK-OV-3 ovarian,441 nM and 344 nM
same,TGI,SK-OV-3 ovarian,6480 nM and 6700 nM
same,GI50,IGROV1 ovarian,210 nM and 211 nM
same,TGI,IGROV1 ovarian,4680 nM and 3640 nM
same,GI50,MALME-3M melanoma,784 nM and 1020 nM
same,TGI,MALME-3M melanoma,6180 nM and 5970 nM
same,GI50,SK-MEL-2 melanoma,1330 nM and 1170 nM
same,TGI,SK-MEL-2 melanoma,19800 nM and 26200 nM
same,GI50,SK-MEL-28 melanoma,517 nM and 528 nM
same,TGI,SK-MEL-28 melanoma,12500 nM and 21600 nM
same,GI50,SN12C renal,500 nM and 554 nM
same,TGI,SN12C renal,16400 nM and 19900 nM
same,GI50,OVCAR-4 ovarian,212 nM
same,TGI,OVCAR-4 ovarian,8520 nM
same,GI50,NCI-H522 lung,890 nM and 254 nM
same,GI50,MDA-MB-231 breast,820 nM and 784 nM
same,TGI,MDA-MB-231 breast,10300 nM and > 100000 nM
same,GI50,EKVX NSCLC,350 nM and 164 nM
same,TGI,EKVX NSCLC,13300 nM and 3260 nM
same,GI50,UO-31 renal,118 nM and 51.9 nM
same,TGI,UO-31 renal,3630 nM and 1770 nM
same,GI50,SW-620 colon,363 nM and 289 nM
same,TGI,SW-620 colon,21100 nM and > 100000 nM
same,GI50,HCC-2998 colon,612 nM and 436 nM
same,TGI,HCC-2998 colon,11300 nM and 18000 nM
